{"source": "patent US20210205196A1", "about": "“PRESERVED COMPOSITIONS” (Conopco, Inc., d/b/a UNILEVER, priority 2018, published 2021)", "key": {"[1]": {"system": "Gram Negative non-fermenting bacteria: Pseudomonas aeruginosa, Burkholderia cepacia, Strenotrophomonas sp", "test": "Modified Ph. Eur. 5.1.3 microbial challenge test in shampoo, Pool 1", "type": "cell-based"}, "[2]": {"system": "Gram Negative fermenting bacteria: Enterobacter cloacae, Klebsiella sp", "test": "Modified Ph. Eur. 5.1.3 microbial challenge test in shampoo, Pool 2", "type": "cell-based"}, "[3]": {"conditions": "0.5% (w/w) acid in shampoo base, pH 5, 7 days"}, "[4]": {"conditions": "0.5% (w/w) acid in shampoo base, pH 5, 14 days (reinoculated at 7 days)"}, "[5]": {"conditions": "0.5% (w/w) acid in shampoo base, pH 5, 21 days (reinoculated at 7 and 14 days)"}, "[6]": {"conditions": "0.5% (w/w) acid in shampoo base, pH 5, 28 days (reinoculated at 7 and 14 days)"}, "[7]": {"conditions": "1.0% (w/w) acid in shampoo base, pH 5, 7 days"}, "[8]": {"conditions": "1.0% (w/w) acid in shampoo base, pH 5, 14 days (reinoculated at 7 days)"}, "[9]": {"conditions": "1.0% (w/w) acid in shampoo base, pH 5, 21 days (reinoculated at 7 and 14 days)"}, "[10]": {"conditions": "1.0% (w/w) acid in shampoo base, pH 5, 28 days (reinoculated at 7 and 14 days)"}}}
{"molecule": "C=C(CC(=O)O)C(=O)O", "note": "[Itaconic acid]", "values": [{"measurement": "Microbial Log reduction", "setting": "[1]; [3]", "value": ">5.68", "unit": "log"}, {"measurement": "Microbial Log reduction", "setting": "[1]; [4]", "value": ">5.56", "unit": "log"}, {"measurement": "Microbial Log reduction", "setting": "[1]; [5]", "value": ">5.74", "unit": "log"}, {"measurement": "Microbial Log reduction", "setting": "[1]; [6]", "value": ">5.74", "unit": "log"}, {"measurement": "Microbial Log reduction", "setting": "[1]; [7]", "value": ">5.61", "unit": "log"}, {"measurement": "Microbial Log reduction", "setting": "[1]; [8]", "value": ">5.56", "unit": "log"}, {"measurement": "Microbial Log reduction", "setting": "[1]; [9]", "value": ">5.74", "unit": "log"}, {"measurement": "Microbial Log reduction", "setting": "[1]; [10]", "value": ">5.74", "unit": "log"}, {"measurement": "Microbial Log reduction", "setting": "[2]; [3]", "value": ">5.88", "unit": "log"}, {"measurement": "Microbial Log reduction", "setting": "[2]; [4]", "value": ">5.69", "unit": "log"}, {"measurement": "Microbial Log reduction", "setting": "[2]; [5]", "value": ">5.80", "unit": "log"}, {"measurement": "Microbial Log reduction", "setting": "[2]; [6]", "value": ">5.80", "unit": "log"}, {"measurement": "Microbial Log reduction", "setting": "[2]; [7]", "value": ">5.88", "unit": "log"}, {"measurement": "Microbial Log reduction", "setting": "[2]; [8]", "value": ">5.69", "unit": "log"}, {"measurement": "Microbial Log reduction", "setting": "[2]; [9]", "value": ">5.80", "unit": "log"}, {"measurement": "Microbial Log reduction", "setting": "[2]; [10]", "value": ">5.80", "unit": "log"}]}
{"molecule": "O=C(O)CC(O)(CC(=O)O)C(=O)O", "note": "[Citric acid, citric acid]", "values": [{"measurement": "Microbial Log reduction", "setting": "[1]; [3]", "value": ">5.61", "unit": "log"}, {"measurement": "Microbial Log reduction", "setting": "[1]; [4]", "value": 3.84, "unit": "log"}, {"measurement": "Microbial Log reduction", "setting": "[1]; [5]", "value": ">5.74", "unit": "log"}, {"measurement": "Microbial Log reduction", "setting": "[1]; [6]", "value": ">5.74", "unit": "log"}, {"measurement": "Microbial Log reduction", "setting": "[1]; [7]", "value": ">5.61", "unit": "log"}, {"measurement": "Microbial Log reduction", "setting": "[1]; [8]", "value": ">5.56", "unit": "log"}, {"measurement": "Microbial Log reduction", "setting": "[1]; [9]", "value": ">5.74", "unit": "log"}, {"measurement": "Microbial Log reduction", "setting": "[1]; [10]", "value": ">5.74", "unit": "log"}, {"measurement": "Microbial Log reduction", "setting": "[2]; [3]", "value": 4.88, "unit": "log"}, {"measurement": "Microbial Log reduction", "setting": "[2]; [4]", "value": ">5.69", "unit": "log"}, {"measurement": "Microbial Log reduction", "setting": "[2]; [5]", "value": ">5.80", "unit": "log"}, {"measurement": "Microbial Log reduction", "setting": "[2]; [6]", "value": ">5.80", "unit": "log"}, {"measurement": "Microbial Log reduction", "setting": "[2]; [7]", "value": 4.97, "unit": "log"}, {"measurement": "Microbial Log reduction", "setting": "[2]; [8]", "value": ">5.69", "unit": "log"}, {"measurement": "Microbial Log reduction", "setting": "[2]; [9]", "value": ">5.80", "unit": "log"}, {"measurement": "Microbial Log reduction", "setting": "[2]; [10]", "value": ">5.80", "unit": "log"}]}
{"molecule": "CC(O)C(=O)O", "note": "(stereo not drawn) [Lactic acid, lactic acid]", "values": [{"measurement": "Microbial Log reduction", "setting": "[1]; [3]", "value": ">5.61", "unit": "log"}, {"measurement": "Microbial Log reduction", "setting": "[1]; [4]", "value": ">5.56", "unit": "log"}, {"measurement": "Microbial Log reduction", "setting": "[1]; [5]", "value": ">5.74", "unit": "log"}, {"measurement": "Microbial Log reduction", "setting": "[1]; [6]", "value": ">5.74", "unit": "log"}, {"measurement": "Microbial Log reduction", "setting": "[1]; [7]", "value": ">5.61", "unit": "log"}, {"measurement": "Microbial Log reduction", "setting": "[1]; [8]", "value": ">5.56", "unit": "log"}, {"measurement": "Microbial Log reduction", "setting": "[1]; [9]", "value": ">5.74", "unit": "log"}, {"measurement": "Microbial Log reduction", "setting": "[1]; [10]", "value": ">5.74", "unit": "log"}, {"measurement": "Microbial Log reduction", "setting": "[2]; [3]", "value": 3.93, "unit": "log"}, {"measurement": "Microbial Log reduction", "setting": "[2]; [4]", "value": ">5.69", "unit": "log"}, {"measurement": "Microbial Log reduction", "setting": "[2]; [5]", "value": ">5.80", "unit": "log"}, {"measurement": "Microbial Log reduction", "setting": "[2]; [6]", "value": ">5.80", "unit": "log"}, {"measurement": "Microbial Log reduction", "setting": "[2]; [7]", "value": ">5.88", "unit": "log"}, {"measurement": "Microbial Log reduction", "setting": "[2]; [8]", "value": ">5.69", "unit": "log"}, {"measurement": "Microbial Log reduction", "setting": "[2]; [9]", "value": ">5.80", "unit": "log"}, {"measurement": "Microbial Log reduction", "setting": "[2]; [10]", "value": ">5.80", "unit": "log"}]}
